Measured values taken from PMC9686516, “Pharmacokinetic Characteristics of Nebulized Colistimethate Sodium Using Two Different Types of Nebulizers in Critically Ill Patients with Ventilator-Associated Respiratory Infections” (Antibiotics, 2022).
Read-outs that look alike come from different tables or passages of the source. Where a SMILES comes first, the peptide text is derived from it. Bridges are numbered along the chain shown (N, C = ends). [ ]: non-standard residue; d: D form. The star is where a group is joined. X1 = CC[C@H](C)CCCCC(=O)*; Dab = NCC[C@H](N)C(=O)O

How the values were obtained:
[1] = adjunctive aerosolized colistin; meta-analysis of mostly observational data; cited from earlier work
Source text: The rationale has been the theoretic ability to achieve sufficient concentration in the infectious milieu of the lung parenchyma while sparing any significant systemic adverse outcome. In contrast to these theoretical considerations, inhaled CMS has only had modest efficacy and in ...

[2] = Colistin pharmacokinetics in epithelial lining fluid (ELF) after nebulized CMS in ventilated VARI patients; assay type: in vivo, human; conditions: 2 mIU CMS inhaled; for AUC0–8 h: ELF (mini-BAL, urea-corrected), no systemic CMS, HPLC-fluorescence; for AUC0–8 h / Volume of distribution/ fraction of dose absorbed / Clearance/fraction of dose absorbed / Cmax: NCA; for AUC0–8 h / Volume of distribution/ fraction of dose absorbed / Clearance/fraction of dose absorbed / Cmax / AUC0–24 / Cmin / Tmax / level at 1 h / level at 4 h / level at 6 h / level at 8 h: median (IQR); for Ccolistin over 2 mg/L, frequency of patients / Ccolistin over 4 mg/L, frequency of patients / Volume of distribution/ fraction of dose absorbed / Clearance/fraction of dose absorbed / Cmax / AUC0–24 / Cmin / Tmax / level at 1 h / level at 4 h / level at 6 h / level at 8 h: ELF; for Volume of distribution/ fraction of dose absorbed: dose/(λ × AUCinf); for Clearance/fraction of dose absorbed: dose/AUCinf; for AUC0–24: calculated as AUCinf × 3 (thrice daily), total colistin; for level at 1 h / level at 4 h / level at 6 h / level at 8 h / Kp: human, inhaled or intranasal, 2 mIU; for level at 1 h / level at 4 h / level at 6 h / level at 8 h: epithelial lining fluid (ELF), read-out: Ccolistin,ELF; for level at 1 h: 1 h post-nebulization; for level at 4 h: 4 h post-nebulization; for level at 6 h: 6 h post-nebulization; for level at 8 h: 8 h post-nebulization; for Kp: epithelial lining fluid (ELF)/plasma, ELF/plasma mean concentration ratio, mean (SD), SD
Source text: The study population consisted of 24 critically ill adult patients, admitted to the intensive care unit of the First Department of Pulmonology of the National and Kapodistrian University of Athens between June 2014 and November 2017. All patients were intubated and mechanically ventilated, and received inhaled CMS as part of their treatment for VAP or VAT caused by Gram-negative pathogens. Subjects were studied around the first dose of nebulized treatment, which always preceded intravenous treatment, to avoid confounding by colistin (or CMS) reaching the ELF via the systemic circulation. We excluded patients that received a dose different to the institution’s standard of 2 million international units (mIU) (~160 mg) of CMS and patients who were planned to receive intravenous colistin within 8 h of nebulization initiation.
A dose of 2 mIU of CMS (Colistin®, Norma Hellas, Athens, Greece), corresponding to approximately 160 mg CMS or 68 mg colistin-base activity, was nebulized over a 10–30 min period via either VMN (Aeroneb Solo with Aeroneb Pro controller, Aerogen, Galway, Ireland) or generic JN. This was not a randomized trial, and the nebulizer selection was exclusively a matter of availability of VMN consumables in the ICU at the time. The intended dose was dissolved in 4 mL of normal saline 0.9%. The nebulizer was placed at the inspiratory limb of the ventilator circuit, at 15 cm from the Y-piece, and the heat and moisture exchanger was removed. During nebulization, the patients were sedated and ventilated using assist volume controlled mode, with tidal volume set at 8 mL/kg of ideal body weight, a constant squared-wave inspiratory flow, a positive end expiratory pressure (PEEP) of less than or equal to 10 cm H2O, an inspiratory to expiratory time ratio equal to 1, an inspiratory pause of 10%, and a respiratory rate set at 15/min [31].
[…] The catheter was inserted through the endotracheal tube. The lavage was performed with instillation of 2 syringes of 20 mL sterile normal saline at room temperature through the catheter. The aspirate from the first syringe was considered representative of bronchial washing and was, therefore, discarded. The aspirate from the second syringe was collected and centrifuged in frigid centrifuge (3500× g for 10 min at 4 °C) immediately (<2 min) to avoid falsely elevated levels of urea in BAL [34] and CMS hydrolysis to formed colistin. The supernatant liquid was stored in plastic micro test tubes (Safe-lock; Eppendorf AG; Hamburg, Germany) and frozen at –80 °C, until analysis.
Colistin concentrations in plasma (Ccolistin,plasma) and epithelial lining fluid (Ccolistin,ELF) were measured through high performance liquid chromatography (HPLC)-fluorescence analysis.
The samples were rapidly centrifuged, and plasma and BAL supernatant were separated and kept frozen (−80 °C) before analysis, as previously described. An HPLC-RF assay was used for colistin concentration measurements in plasma and BAL fluid samples, based on the method of Li et al., as modified by Markou et al. and Ratjen et al.. Briefly, netilmicin was used as the internal standard and the method consisted of a protein precipitation step with trifluoracetic acid (TFA), followed by colistin derivatization with 9-fluorenylmethyl chloroformate on a solid phase extraction C18 cartridge. The eluted fluid was dried under vacuum and the solid residue was reconstituted in mobile phase for subsequent reversed-phase HPLC with fluorescence detection (excitation: 260 nm; emission: 316 nm). The analytical column was a Phenomenex Luna C18, 3 μm, 50 mm × 3 mm with 100 Å particle size, while the mobile phase consisted of ACN/THF/H2O (80/7.7/12.3%) with a flow rate of 0.5 mL/min. The injection volume was 20 μL. The method was linear at a concentration range of 0.10–4.8 mg/L (R^2 = 0.999). […]

[3] = cited from earlier work
Experimental: However, the ELF exposure was similar, despite the higher dose, probably due to a higher clearance from the lung compartment in our study, as evidenced by the ... || Contrarily, our results were only marginally compatible with the results of Boisson et al. and Gkoufa et al.. In the former study, the range of colistin concentration in the ELF following a 2 mIU inhalation spanned from 9.53 to 1137 mg/L [14], while it was between 0.8 mg/L and 57.9 mg/L in the present study. In the latter study, the exact values were not reported, however in the figured data it was shown that after an inhalation of 3 to 5 mIU of CMS, formed colistin concentrations were in the range of 10^2 to 10^3 mg/L [16]. Again, it is not known whether these differences we ...

[4] = piglets, cited from earlier work
Experimental: Nevertheless, in a piglet model of ventilated P. aeruginosa inoculation pneumonia, Lu et al. observed a serum maximum colistin concentration of 1.6 ± 1.4 mg/L after VMN aerosolization of 0.1 mIU/kg of CMS [28]. […] Post-nebulization colistin tissue levels have never been measured in humans; if the results abov ...

Which “decrease in the odds of infection-related mortality” value [1] does the source give for CC[C@H](C)CCCCC(=O)N[C@@H](CCN)C(=O)N[C@H](C(=O)N[C@@H](CCN)C(=O)N[C@H]1CCNC(=O)[C@H]([C@@H](C)O)NC(=O)[C@H](CCN)NC(=O)[C@H](CCN)NC(=O)[C@H](CC(C)C)NC(=O)[C@@H](CC(C)C)NC(=O)[C@H](CCN)NC1=O)[C@@H](C)O [colistin] (X1-[Dab]T[Dab][Dab][Dab][dL]L[Dab][Dab]T; lactam 4-C) here?
The value was ~40%.

What about the “increase in the odds of clinical cure” value [1] of the same compound?
Its value is “approximately 60%”.

And the “AUC0–8 h” value ([2]; JN, n = 6)?
Its value is 30.5 (26.0–36.8) mg/L∙h.

And the “AUC0–8 h” value ([2]; VMN, n = 18)?
The value was 28.7 (15.1–68.1) mg/L∙h.

And the “Ccolistin over 2 mg/L, frequency of patients” value (“Ccolistin over 2 mg/L” below) ([2]; 60 min, JN, n = 6)?
Its value is 16.7%.

And the “Ccolistin over 4 mg/L, frequency of patients” value (shortened to “Ccolistin over 4 mg/L”) ([2]; 60 min, JN, n = 6)?
Its value is 16.7%.

What about the “Ccolistin over 2 mg/L” value ([2]; 240 min, JN, n = 6) of the same compound?
The value was 100%.

And the “Ccolistin over 4 mg/L” value ([2]; 240 min, JN, n = 6)?
The value was 83.3%.

What about the “Ccolistin over 2 mg/L” value ([2]; 240 min, VMN, n = 18) of the same compound?
Its value is 50%.

What about the “Ccolistin over 4 mg/L” value ([2]; 240 min, VMN, n = 18) of the same compound?
The value was 27.8%.

And the “Ccolistin over 2 mg/L” value ([2]; 360 min, JN, n = 6)?
The value was 83.3%.

What about the “Ccolistin over 4 mg/L” value ([2]; 360 min, JN, n = 6) of the same compound?
Its value is 33.3%.

What about the “Ccolistin over 2 mg/L” value ([2]; 360 min, VMN, n = 18) of the same compound?
Its value is 88.9%.

And the “Ccolistin over 4 mg/L” value ([2]; 360 min, VMN, n = 18)?
The value was 83.3%.

What about the “Ccolistin over 2 mg/L” value ([2]; 480 min, JN, n = 6) of the same compound?
The value was 0%.

What about the “Ccolistin over 4 mg/L” value ([2]; 480 min, JN, n = 6) of the same compound?
The value was 0%.

What about the “Ccolistin over 2 mg/L” value ([2]; 480 min, VMN, n = 18) of the same compound?
The value was 41.2%.

What about the “Ccolistin over 4 mg/L” value ([2]; 480 min, VMN, n = 18) of the same compound?
The value was 17.6%.

And the “Volume of distribution/ fraction of dose absorbed” value ([2]; JN, n = 6)?
Its value is 4.5 (3.5–5.1) L.

What about the “Clearance/fraction of dose absorbed” value ([2]; JN, n = 6) of the same compound?
The value was 1.8 (1.5–2.1) L/h.

And the Cmax ([2]; JN, n = 6)?
Its Cmax is 7.4 (6.2–10.3) mg/L.

What about the “AUC0–24” value ([2]; JN, n = 6) of the same compound?
Its value is 91.5 (78.1–110.3) mg/L∙h.

And the Cmin ([2]; JN, n = 6)?
Its Cmin is 1.1 (0.9–1.2) mg/L.

And the Tmax ([2]; JN, n = 6)?
The Tmax was 4.3 (3.5–4.3) h.

What about the “Volume of distribution/ fraction of dose absorbed” value ([2]; VMN, n = 18) of the same compound?
The value was 1.7 (0.8–5.2) L.

What about the “Clearance/fraction of dose absorbed” value ([2]; VMN, n = 18) of the same compound?
Its value is 1.4 (0.8–3.6) L/h.

And the Cmax ([2]; VMN, n = 18)?
The Cmax was 10.4 (4.7–22.6) mg/L.

And the “AUC0–24” value ([2]; VMN, n = 18)?
Its value is 86.2 (46.0–185.9) mg/L∙h.

What about the Cmin ([2]; VMN, n = 18) of the same compound?
Its Cmin is 0.4 (0.1–0.8) mg/L.

And the Tmax ([2]; VMN, n = 18)?
Its Tmax is 6.5 (6.3–6.6) h.

What about the level at 1 h ([2]; JN, n = 6) of the same compound?
The level at 1 h was 1200 ng/mL.

What about the level at 1 h ([2]; VMN, n = 18) of the same compound?
Its level at 1 h is 700 ng/mL.

And the level at 4 h ([2]; JN, n = 6)?
The level at 4 h was 6420 ng/mL.

What about the level at 4 h ([2]; VMN, n = 18) of the same compound?
The level at 4 h was 2100 ng/mL.

What about the level at 6 h ([2]; JN, n = 6) of the same compound?
Its level at 6 h is 3300 ng/mL.

And the level at 6 h ([2]; VMN, n = 18)?
The level at 6 h was 8600 ng/mL.

What about the level at 8 h ([2]; JN, n = 6) of the same compound?
The level at 8 h was 1300 ng/mL.

What about the level at 8 h ([2]; VMN, n = 18) of the same compound?
The level at 8 h was 1420 ng/mL.

What about the Kp ([2]; JN, n = 6) of the same compound?
Its Kp is 4.8.

And the Kp ([2]; VMN, n = 18)?
The Kp was 5.5.

What about the “median plasma Cmax” value ([3]; 1 mIU of CMS via VMN, ref 13 (Athanassa et al.)) of the same compound?
The value was 1600 ng/mL.

And the plasma concentrations ([3]; after inhaled CMS, generally)?
Its plasma concentrations is “below 1 mg/L”.

What about the “median peak lung tissue concentration” value ([4]; 1 h after the third inhaled dose, upon sacrifice) of the same compound?
The value was 2.8 µg/g.

And the “serum maximum colistin concentration” value ([4]; VMN aerosolization of 0.1 mIU/kg of CMS, ref 28 (Lu et al.))?
The value was 1.6 ± 1.4 mg/L.
